According to patent publication US20240398790A1 (ABBVIE INC., priority 2021, published 2024):

Experiments:
[1] = tested on: adult subjects with active ankylosing spondylitis (AS) who had an inadequate response to biologic disease-modifying anti-rheumatic drug therapy (bDMARD-IR); test: SELECT AXIS 2 Study 1, Phase 3 placebo-controlled, efficacy at Week 14; assay type: in vivo, human
[2] = tested on: adult subjects with active ankylosing spondylitis (AS) who had an inadequate response to biologic disease-modifying anti-rheumatic drug therapy (bDMARD-IR); conditions: human, in vivo
[3] = tested on: bDMARD-naïve patients with AS who had an inadequate response to non-steroidal anti-inflammatory drugs (NSAIDs); conditions: cited from earlier work
[4] = tested on: adult subjects with active ankylosing spondylitis (AS) who had an inadequate response to biologic disease-modifying anti-rheumatic drug therapy (bDMARD-IR); test: SELECT AXIS 2 Study 1, safety up to Week 14
AS = conditions: literature; cited from earlier work
[5] = AESI up to Week 14, N = 211, listed as Upadacitinib
[6] = AESI up to Week 14, N = 211, listed as upadacitinib freebase
[7] = CTCAE V4, Double-Blind Period (Week 14)
[8] = up to Week 14, N = 211, listed as RINVOQ

Molecule: CC[C@@H]1CN(C(=O)NCC(F)(F)F)C[C@@H]1c1cnc2cnc3[nH]ccc3n12 [upadacitinib, (3S,4R)-3-ethyl-4-(3H-imidazo[1,2-a]pyrrolo[2,3-e]pyrazin-8-yl)-N-(2,2,2-trifluoroethyl)pyrrolidine-1-carboxamide]
- AS QoL, UPA-PBO [1]: −3.07
- ASDAS(CRP) Low Disease Activity, UPA-PBO [1]: 34.0
- ASDAS(CRP), UPA-PBO [1]: −1.02
- BASFI (Function), UPA-PBO [1]: −1.17
- BASMI (Mobility), UPA-PBO [1]: −0.32
- MASES (Enthesitis) [1]: −2.6
- MASES (Enthesitis), UPA-PBO [1]: −1.5
- MRI Spine SPARCC, UPA-PBO [1]: −3.90
- Nocturnal Back Pain, UPA-PBO [1]: −1.7
- Total Back Pain, UPA-PBO [1]: −1.53
- AS QoL ([1]; 15 mg): −5.10
- ASDAS(CRP) ([1]; 15 mg): −1.52
- BASFI (Function) ([1]; 15 mg): −2.26
- BASMI (Mobility) ([1]; 15 mg): −0.48
- MRI Spine SPARCC ([1]; 15 mg): −3.95
- Nocturnal Back Pain ([1]; 15 mg): −3.2
- Total Back Pain ([1]; 15 mg): −3.00
- onset of effect in ASAS40 ([1]; 15 mg): 4 Week
- ASDAS(CRP) Low Disease Activity ([1]; 15 mg QD, Week 14, NRI-MI): 44.1%
- Opportunistic infection excluding tuberculosis and herpes zoster [2]: 0 (0.0) n (%)
- COVID-19 related AE, % ([2]; 14 weeks): (5.7) %
- ASAS40 response at Week 14 (primary endpoint) versus placebo ([3]; SELECT-AXIS 1, Week 14): significantly greater achievement
- efficacy once achieved at Week 14, over time ([3]; SELECT-AXIS 1, up to and including Week 64): sustained or improved over time
- Adverse event (AE), % ([4]; 15 mg QD, up to Week 14, N = 211): (40.8) %
- Serious infections, proportion of patients ([4]; 15 mg, through week 14): 2.4%
- herpes zoster, proportion of patients ([4]; 15 mg, through week 14): 0.9%
- Active tuberculosis ([4]; AESI up to Week 14, N = 211): 0 (0.0) n (%)
- Anemia ([4]; AESI up to Week 14, N = 211): 3 (1.4) n (%)
- Hepatic disorder ([4]; AESI up to Week 14, N = 211): 6 (2.8) n (%)
- Herpes zoster ([4]; AESI up to Week 14, N = 211): 2 (0.9) n (%)
- Infection ([4]; AESI up to Week 14, N = 211): 31 (14.7) n (%)
- Lymphoma ([4]; AESI up to Week 14, N = 211): 0 (0.0) n (%)
- Lymphopenia ([4]; AESI up to Week 14, N = 211): 1 (0.5) n (%)
- Malignancy ([4]; AESI up to Week 14, N = 211): No malignancy
- Malignancy other than NMSC ([4]; AESI up to Week 14, N = 211): 0 (0.0) n (%)
- Neutropenia ([4]; AESI up to Week 14, N = 211): 6 (2.8) n (%)
- Non-melanoma skin cancer (NMSC) ([4]; AESI up to Week 14, N = 211): 0 (0.0) n (%)
- Renal dysfunction ([4]; AESI up to Week 14, N = 211): 0 (0.0) n (%)
- Serious infection ([4]; AESI up to Week 14, N = 211): 5 (2.4) n (%)
- Adjudicated MACE [4, 5]: 0 (0.0) n (%)
- Adjudicated gastrointestinal perforation [4, 5]: 0 (0.0) n (%)
- Adjudicated venous thromboembolic events [4, 5]: 0 (0.0) n (%)
- Malignancy [4, 5]: 0 (0.0) n (%)
- Adjudicated MACE [4, 6]: no events
- Adjudicated gastrointestinal perforation [4, 6]: no events
- Adjudicated venous thromboembolic events [4, 6]: no events
- Malignancy [4, 6]: no events
- ALT (U/L) Grade 4 (>20.0 xULN) [4, 7]: 0/211
- AST (U/L) Grade 4 (>20.0 xULN) [4, 7]: 0/211
- Creatinine (umol/L) Grade 3 (>3.0-6.0 xULN or >3.0 xBaseline) [4, 7]: 0/211
- Creatinine (umol/L) Grade 4 (>6.0 xULN) [4, 7]: 0/211
- Hemoglobin (g/L) Grade 3 (<80) [4, 7]: 0/211
- Lymphocytes (10^9/L) Grade 4 (<0.2) [4, 7]: 0/211
- Neutrophils (10^9/L) Grade 4 (<0.5) [4, 7]: 0/211
- safety profile ([4]; Phase 3 AS bDMARD-IR study): no new risks were identified
- AE with reasonable possibility of being related to study treatment, % ([4]; as assessed by investigator, up to Week 14, N = 211): (17.1) %
- hepatic disorders reported, nature ([4]; up to Week 14): mild or moderate transaminase elevations
- AE leading to death, % ([4]; up to Week 14, N = 211): (0.0) %
- AE leading to withdrawal of study treatment, % ([4]; up to Week 14, N = 211): (0.0) %
- All deaths, % ([4]; up to Week 14, N = 211): (0.0) %
- Serious AE, % ([4]; up to Week 14, N = 211): (2.8) %
- Severe AE, % ([4]; up to Week 14, N = 211): (3.3) %
- AE leading to withdrawal of study treatment, % [4, 8]: 0%
- Serious AE, % [4, 8]: 2.8%

Molecule: tocilizumab: IL-6 inhibitor
- efficacy achieved in AS (AS): low efficacy

Molecule: ustekinumab: IL-12/23 inhibitor
- efficacy achieved in AS (AS): low efficacy

B1: sarilumab: IL-6 inhibitor (antibody, chains of the INN, looked up, V domains shown)
VH: EVQLVESGGGLVQPGRSLRLSCAASRFTFDDYAMHWVRQAPGKGLEWVSGISWNSGRIGYADSVKGRFTISRDNAENSLFLQMNGLRAEDTALYYCAKGRDSFDIWGQGTMVTVSS
VL: DIQMTQSPSSVSASVGDRVTITCRASQGISSWLAWYQQKPGKAPKLLIYGASSLESGVPSRFSGSGSGTDFTLTISSLQPEDFASYYCQQANSFPYTFGQGTKLEIK
- efficacy achieved in AS (AS): low efficacy
